Results published in US9469647B2, “Salt crystals” (INTRA-CELLULAR THERAPIES, INC., priority 2012, dated 2016).
Where a name gives a salt, the structure may show the parent alone. Read-outs that look alike come from different tables or passages of the source.

Tests used:
[1] = Solubility study of phosphate salt crystals in aqueous media at pH 1.2-6.8; assay type: physicochemical; conditions: for solubility at 1 hr: read-out: Solubility after 1 hr; for solubility at 16 hr: read-out: Solubility after 16 hrs
Description: The (6aR,9aS)-5,6a,7,8,9,9a-hexahydro-5-methyl-3-(phenylamino)-2-((4-(6-fluoropyridin-2-yl)phenyl)methyl)-cyclopent[4,5]imidazo[1,2-a]pyrazolo[4,3-e]pyrimidin-4(2H)-one mono-phosphate salt crystals are assessed for its aqueous solubility at lower pH. The (amorphous) free base is also tested for reference at a limited range of pH.
Phosphate (buffer) solutions are made at 50 mM concentration and the pH is adjusted to pH 2, 3, 4, 5 or 6.8 using either 3M phosphoric acid (lower pH) or 3M NaOH (higher pH). 0.1N HCl is also used, pH is measured as 1.2.
20 mg of the (6aR,9aS)-5,6a,7,8,9,9a-hexahydro-5-methyl-3-(phenylamino)-2-((4-(6-fluoropyridin-2-yl)phenyl)methyl)-cyclopent[4,5]imidazo[1,2-a]pyrazolo[4,3-e]pyrimidin-4(2H)-one mono-phosphate salt crystals or free base is weighed into a glass vial, and 2 ml of the relevant aqueous media is added. The vials are shaken. After 1 hr, a sample (˜1 ml) is removed via syringe, and filtered through a syringe filter (0.2 micron) into an HPLC vial. After shaking the suspensions for 16 hours, a second sample is taken. All samples are then diluted with the HPLC diluent by a factor of 1000 (except the pH 6.8 samples which are diluted ×10), and re-analysed by HPLC. In cases where the entire solid dissolved, the 2 ml solution is added to another 20 mg salt or free base.

[2] = Bridging study of monophosphate salt and free base in dog (plasma pharmacokinetics); assay type: in vivo; conditions: po, 40 mg/kg; for half-life: read-out: E Half-life (converted)
Description: The mono-phosphate salt of (6aR,9aS)-5,6a,7,8,9,9a-hexahydro-5-methyl-3-(phenylamino)-2-((4-(6-fluoropyridin-2-yl)phenyl)methyl)-cyclopent[4,5]imidazo[1,2-a]pyrazolo[4,3-e]pyrimidin-4(2H)-one is administered to dogs at a dose of 40 mg/kg in gelatin capsules or via oral gavage in a vehicle formulation of HCl-Citrate, pH 3.5, 0.5% methylcellulose in water. […] The analysis of drug concentration in plasma samples collected is analyzed.
The pharmacokinetic (PK) parameters are determined from the plasma concentration versus time data by non-compartmental methods with uniform weighting (PK solutions 2.0™, Summit Research Services, Montrose, Colo.). The maximum observed concentration (Cmax) and the time of the maximum observed concentration (tmax) are obtained from the bioanalytical raw data. The area-under-the-plasma concentration-time curve from time zero to the time of the last measurable sample (AUC_) is calculated by the trapezoidal rule.

[3] = tested on: phosphodiesterase 1 (PDE 1); conditions: statement referring to WO 2009/075784; cited from earlier work
[4] = USP2 dissolution study at pH 1 and 4.5; assay type: physicochemical; conditions: for solubility at low pH in dissolution study: pH 1 (0.1 M HCl), 37 C; for time to full dissolution: pH 1, about 0.1 mg/mL (API equivalent), capsule in 1000 mL, 50 rpm
Text: The rate of dissolution is an important factor in the bioavailability of an active pharmaceutical ingredient (API). This is commonly tested using standard conditions e.g. USP 2 dissolution testing. The pH of the aqueous media used can be correlated with the pH of the stomach (low pH −1-2) and the intestines (intermediate acidic pH −4-6). Therefore pH 1 (0.1 M HCl) and a citrate buffer at pH 4.5 (0.2M) are used for the dissolution testing.
The (6aR,9aS)-5,6a,7,8,9,9a-hexahydro-5-methyl-3-(phenylamino)-2-((4-(6-fluoropyridin-2-yl)phenyl)methyl)-cyclopent[4,5]imidazo[1,2-a]pyrazolo[4,3-e]pyrimidin-4(2H)-one mono-phosphate salt crystals are weighed (×4) into size 0 white gelatine capsules at 119 mg per capsule (equivalent to 100 mg API). The (6aR,9aS)-5,6a,7,8,9,9a-hexahydro-5-methyl-3-(phenylamino)-2-((4-(6-fluoropyridin-2-yl)phenyl)methyl)-cyclopent[4,5]imidazo-[1,2-a]pyrazolo[4,3-e]pyrimidin-4(2H)-one is also weighed (×2) into white gelatine capsules at 100 mg per capsule. These capsules are then dissolved using the standard set up of the USP 2 dissolution equipment i.e., in 1000 mL of the relevant aqueous media, stirrers set at 50 rpm, capsules placed in metal coils to weigh them down, media equilibrated with the water bath set at 37″C. Analytical samples are removed via canula, with an initial filter on the canula and secondary filtering through 0.2 micron syringe filters. The samples are then analysed without dilution by HPLC for API content. Calibration for HPLC is run using both the free base API and the phosphate salt.

[5] = Single rising dose clinical study (pharmacokinetic profile); assay type: in vivo; conditions: plasma, human, aqueous solution, Mean (SD)
Description: In a single rising dose clinical study involving 55 active subjects (15 placebo) with 11 active:3 placebo for each dose level of 10, 25, 75, 150, 300 mg, the mono-phosphate salt crystals of (6aR,9aS)-5,6a,7,8,9,9a-hexahydro-5-methyl-3-(phenylamino)-2-((4-(6-fluoropyridin-2-yl)phenyl)methyl)-cyclopent[4,5]imidazo[1,2-a]pyrazolo[4,3-e]pyrimidin-4(2H)-one is dissolved in water, and this aqueous solution is orally administered. The pharmacokinetic profile is setforth below in Table 7.

[6] = Solid-state properties of the mono-phosphate salt crystals for galenic formulation; assay type: physicochemical
[7] = 50 mM phosphate buffer, pH 2, aqueous buffer, thermodynamic from solid, pH 2, 50 mM phosphate buffer
[8] = 0.1N HCl, pH 1.2, simulated gastric fluid, thermodynamic from solid, pH 1.2 (0.1N HCl)
[9] = both sexes, Mean (M-5001 to F-5102), oral gavage
[10] = female, dog F-5101, oral gavage
[11] = female, dog F-5102, oral gavage
[12] = 50 mM phosphate buffer, pH 4, aqueous buffer, thermodynamic from solid, pH 4, 50 mM phosphate buffer
[13] = pH 5, 50 mM phosphate buffer, diluted 1000 times before HPLC
[14] = pH 6.8, 50 mM phosphate buffer, diluted 10 times before HPLC
[15] = female, dog F-1101, oral gavage
[16] = female, dog F-1102, oral gavage
[17] = female, dog F-2102, oral capsule

Compound: CN1C(=O)c2c(nn(Cc3ccc(-c4cccc(F)n4)cc3)c2Nc2ccccc2)N2C1=N[C@@H]1CCC[C@@H]12 [Free base API (amorphous), (6aR,9aS)-5,6a,7,8,9,9a-hexahydro-5-methyl-3-(phenylamino)-2-((4-(6-fluoropyridin-2-yl)phenyl)methyl)-cyclopent[4,5]imidazo[1,2-a]pyrazolo[4,3-e]pyrimidin-4(2H)-one]
- solubility at 1 hr [1, 7]: > 20000 µg/mL
- solubility at 16 hr [1, 7]: > 20000 µg/mL
- solubility at 1 hr [1, 8]: > 20000 µg/mL
- solubility at 16 hr [1, 8]: > 20000 µg/mL
- Solubility after 1 hr ([1]; pH 3, 50 mM phosphate buffer): 2500 µg/mL
- Solubility after 16 hrs ([1]; pH 3, 50 mM phosphate buffer): 2200 µg/mL
- AUC [2, 9]: 19200 ng·h/mL
- Cmax [2, 9]: 1020 ng/mL
- Tmax [2, 9]: 4 h
- half-life [2, 9]: 10.8 h
- AUC [2, 10]: 11500 ng·h/mL
- Cmax [2, 10]: 674 ng/mL
- Tmax [2, 10]: 8 h
- half-life [2, 10]: 6.7 h
- AUC [2, 11]: 14300 ng·h/mL
- Cmax [2, 11]: 2000 ng/mL
- Tmax [2, 11]: 2 h
- half-life [2, 11]: 5.5 h
- AUC ([2]; male, dog M-5001, oral gavage): 20100 ng·h/mL
- Cmax ([2]; male, dog M-5001, oral gavage): 902 ng/mL
- Tmax ([2]; male, dog M-5001, oral gavage): 4 h
- half-life ([2]; male, dog M-5001, oral gavage): 14.8 h
- AUC ([2]; male, dog M-5002, oral gavage): 36500 ng·h/mL
- Cmax ([2]; male, dog M-5002, oral gavage): 1320 ng/mL
- Tmax ([2]; male, dog M-5002, oral gavage): 4 h
- half-life ([2]; male, dog M-5002, oral gavage): 16.7 h
- PDE1 inhibition (potency and selectivity in words) [3]: potent and selective phosphodiesterase 1 (PDE 1) inhibitor
- solubility at low pH in dissolution study [4]: good solubility
- time to full dissolution [4]: approximately 15 minutes

Compound: CN1C(=O)c2c(nn(Cc3ccc(-c4cccc(F)n4)cc3)c2Nc2ccccc2)N2C1=N[C@@H]1CCC[C@@H]12 [Phosphate salt, (6aR,9aS)-5,6a,7,8,9,9a-hexahydro-5-methyl-3-(phenylamino)-2-((4-(6-fluoropyridin-2-yl)phenyl)methyl)-cyclopent[4,5]imidazo[1,2-a]pyrazolo[4,3-e]pyrimidin-4(2H)-one]
- solubility ([1]; 50 mM phosphate buffer, pH 4, aqueous buffer, thermodynamic from solid, pH 4): ≤ 7700 µg/mL
- solubility at 1 hr [1, 12]: 2500 µg/mL
- solubility at 16 hr [1, 12]: 7700 µg/mL
- Solubility after 1 hr ([1]; pH 1.2 (0.1N HCl)): >20000 µg/mL
- Solubility after 16 hrs ([1]; pH 1.2 (0.1N HCl)): >20000 µg/mL
- Solubility after 1 hr ([1]; pH 2, 50 mM phosphate buffer): 13600 µg/mL
- Solubility after 16 hrs ([1]; pH 2, 50 mM phosphate buffer): 17000 µg/mL
- solubility compared with the amorphous free base ([1]; pH 3): better solubility than the amorphous free base
- Solubility after 1 hr ([1]; pH 3, 50 mM phosphate buffer): 8400 µg/mL
- Solubility after 16 hrs ([1]; pH 3, 50 mM phosphate buffer): 9400 µg/mL
- Solubility after 1 hr [1, 13]: Below detection limit*
- Solubility after 16 hrs [1, 13]: Below detection limit*
- Solubility after 1 hr [1, 14]: Below detection limit*
- Solubility after 16 hrs [1, 14]: Below detection limit*
- AUC ([2]; both sexes, Mean, oral capsule): 18700 ng·h/mL
- Tmax ([2]; both sexes, Mean, oral capsule): 2 h
- half-life ([2]; both sexes, Mean, oral capsule): 7.3 h
- AUC ([2]; both sexes, Mean, oral gavage): 21300 ng·h/mL
- Tmax ([2]; both sexes, Mean, oral gavage): 4 h
- half-life ([2]; both sexes, Mean, oral gavage): 8.7 h
- AUC [2, 15]: 16200 ng·h/mL
- Cmax [2, 15]: 1080 ng/mL
- Tmax [2, 15]: 4 h
- half-life [2, 15]: 6.6 h
- AUC [2, 16]: 21300 ng·h/mL
- Cmax [2, 16]: 1360 ng/mL
- Tmax [2, 16]: 8 h
- half-life [2, 16]: 5.5 h
- AUC [2, 17]: 20500 ng·h/mL
- Cmax [2, 17]: 1470 ng/mL
- Tmax [2, 17]: 8 h
- half-life [2, 17]: 6.2 h
- AUC ([2]; male, dog M-1001, oral gavage): 16900 ng·h/mL
- Cmax ([2]; male, dog M-1001, oral gavage): 918 ng/mL
- Tmax ([2]; male, dog M-1001, oral gavage): 8 h
- half-life ([2]; male, dog M-1001, oral gavage): 7.8 h
- AUC ([2]; male, dog M-1002, oral gavage): 31600 ng·h/mL
- Cmax ([2]; male, dog M-1002, oral gavage): 1520 ng/mL
- Tmax ([2]; male, dog M-1002, oral gavage): 4 h
- half-life ([2]; male, dog M-1002, oral gavage): 12 h
- AUC ([2]; male, dog M-2001, oral capsule): 13200 ng·h/mL
- Cmax ([2]; male, dog M-2001, oral capsule): 2430 ng/mL
- Tmax ([2]; male, dog M-2001, oral capsule): 2 h
- half-life ([2]; male, dog M-2001, oral capsule): 4.6 h
- AUC ([2]; male, dog M-2002, oral capsule): 21900 ng·h/mL
- Cmax ([2]; male, dog M-2002, oral capsule): 1530 ng/mL
- Tmax ([2]; male, dog M-2002, oral capsule): 2 h
- half-life ([2]; male, dog M-2002, oral capsule): 7.8 h
- Cmax ([2]; Mean, oral capsule): 1330 ng/mL
- Cmax ([2]; Mean, oral gavage): 1160 ng/mL
- AUC(0-inf) ([5]; single oral dose 10 mg): 772 ng·h/mL
- AUC(0-t) ([5]; single oral dose 10 mg): 768 ng·h/mL
- Cmax ([5]; single oral dose 10 mg): 89.7 ng/mL
- Tmax ([5]; single oral dose 10 mg): 1 h
- AUC(0-inf) ([5]; single oral dose 25 mg): 1340 ng·h/mL
- AUC(0-t) ([5]; single oral dose 25 mg): 1340 ng·h/mL
- Cmax ([5]; single oral dose 25 mg): 155 ng/mL
- Tmax ([5]; single oral dose 25 mg): 0.5 h
- AUC(0-inf) ([5]; single oral dose 75 mg): 3050 ng·h/mL
- AUC(0-t) ([5]; single oral dose 75 mg): 3040 ng·h/mL
- Cmax ([5]; single oral dose 75 mg): 334 ng/mL
- Tmax ([5]; single oral dose 75 mg): 1 h
- AUC(0-inf) ([5]; single oral dose 150 mg): 5050 ng·h/mL
- AUC(0-t) ([5]; single oral dose 150 mg): 5040 ng·h/mL
- Cmax ([5]; single oral dose 150 mg): 585 ng/mL
- Tmax ([5]; single oral dose 150 mg): 1 h
- AUC(0-inf) ([5]; single oral dose 300 mg): 8190 ng·h/mL
- AUC(0-t) ([5]; single oral dose 300 mg): 8180 ng·h/mL
- Cmax ([5]; single oral dose 300 mg): 828 ng/mL
- Tmax ([5]; single oral dose 300 mg): 1 h
- solubility ([6]; general statement): good solubility
- hygroscopicity ([6]; solid salt crystals): low hygroscopicity
- stability ([6]; solid salt crystals): particularly stable
- dissolution rate compared with the free base ([4]; USP 2, pH 1 and pH 4.5): better dissolution rates than the free base
- solubility at low pH in dissolution study [4]: good solubility
- time to full dissolution [4]: approximately 15 minutes
